From EP0664129A2, “Epicholesterol for treating dyslipidemia” (PHARMACIA S.p.A., priority 1994, dated 1995)

Columns and labels:
Rats = assay: Cholesterol / epicholesterol enriched diets in rats: plasma and liver total cholesterol (enzymatic colorimetric method); format: in vivo, Male Sprague Dawley rats; settings: 4 days
Procedure: (§1) Male Sprague Dawley rats weighing 250 g and male CD mice weighing 22-25 g (Charles River) were housed in rooms maintained at 21±1°C with relative humidity 50-60% and a 12 hours light-dark cycle. After a week of housing, the animals were allocated to the different experimental groups and received one of the following diets: • a) rat or mouse chow diet, containing 0.5% sodium cholate; • b) cholesterol enriched diet, containing 0.5% sodium cholate and 1.5% cholesterol; • c) epicholesterol enriched diet, containing 0.5% sodium cholate and 1.5% epicholesterol; • d) epicholesterol and cholesterol enriched diet containing 0.5% sodium cholate and 1.5% of both sterols. Weight of the animals and food consumption were recorded daily. After overnight fasting, the animals were anesthetized with sodium pentobarbital (50 mg/kg body weight) and exsanguinated from the abdominal aorta. Plasma was obtained by low speed (3000 g for 10 min) centrifugation of whole blood containing Na₂EDTA as anticoagulant. Plasma lipid extracts were prepared according to Bligh E.G., Dyer W.J., Can. J. Bioch. Physiol, 31, 911, 1959. Liver specimens (500 mg) were excised from the lateral liver lobe, washed in ice-cold saline, and immediately placed on dry-ice and stored at -80°C. They were extracted according to the method of Folch J. et al., J. Biol. Chem. , 226, 497, 1957, as modified by Carlson L.A., J. Atheroscler. Res., 3, 334, 1963. Plasma and liver total cholesterol content (i.e. unesterified and esterified cholesterol fractions) were determined by the enzymatic colorimetric method of Allain et al., Clin. Chem., 20, 470, 1974. In this assay epicholesterol is not read.

Mice = assay: Cholesterol / epicholesterol enriched diets in mice: plasma and liver total cholesterol (enzymatic colorimetric method); format: in vivo, male CD mice; settings: 4 days
Procedure: as §1

[1] = Gas liquid chromatography of unesterified sterols in plasma and liver of mice fed enriched diets; format: in vivo; settings: for Percent Distribution Epicholesterol (unesterified sterol content): 1.5% sterol enriched diet, Mean ± SD, n=3, nd: not detectable
Procedure: Male Sprague Dawley rats weighing 250 g and male CD mice weighing 22-25 g (Charles River) were housed in rooms maintained at 21±1°C with relative humidity 50-60% and a 12 hours light-dark cycle. After a week of housing, the animals were allocated to the different experimental groups and received one of the following diets: • a) rat or mouse chow diet, containing 0.5% sodium cholate; • b) cholesterol enriched diet, containing 0.5% sodium cholate and 1.5% cholesterol; • c) epicholesterol enriched diet, containing 0.5% sodium cholate and 1.5% epicholesterol; • d) epicholesterol and cholesterol enriched diet containing 0.5% sodium cholate and 1.5% of both sterols. Weight of the animals and food consumption were recorded daily.
After overnight fasting, the animals were anesthetized with sodium pentobarbital (50 mg/kg body weight) and exsanguinated from the abdominal aorta. Plasma was obtained by low speed (3000 g for 10 min) centrifugation of whole blood containing Na₂EDTA as anticoagulant.
Plasma lipid extracts were prepared according to Bligh E.G., Dyer W.J., Can. J. Bioch. Physiol, 31, 911, 1959.
Liver specimens (500 mg) were excised from the lateral liver lobe, washed in ice-cold saline, and immediately placed on dry-ice and stored at -80°C. They were extracted according to the method of Folch J. et al., J. Biol. Chem. , 226, 497, 1957, as modified by Carlson L.A., J. Atheroscler. Res., 3, 334, 1963.
Lipids extract from plasma and liver were separated by TLC on Silica Gel plates from Merck using petroleum ether 40-70°/diethyl ether/acetic acid (80:20:1) as developing system. Cholesterol, epicholesterol, dihydrocholesterol, and 7-keto-cholesterol as representative of the oxysterol class of sterols migrated with very similar Rf and could be recovered as a single area from the TLC plate. These sterols were eluted from the silica using chloroform and were dried by evaporation under N₂. The samples were redissolved in pyridine and derivatizated adding an equal volume of MBSTFA [N-methyl-N(tert-butyldimethylsilyl)Trifluoroacetamide].
After 20 minutes at room temperature the samples were analyzed by GLC according to Smith N.B., Lipids, 17, 464, 1982, on a Carlo Erba Mega 3000 gaschromatographer equipped with a flame ionization detector and a 25 m OV1 column (0.2 mm id., film thickness 0.2-0.25). He was used as carrier at 100 Kps. The splitless injection technique was used and 1-2 µl sample were injected. […] The injection and the detector temperatures were respectively 340°C and 350°C. Retention time of cholesterol, epicholesterol, dihydrocholesterol and 7keto-cholesterol were determined by injecting pure sterols.

[2] = Micellar cholesterol solubilization in vitro; format: physicochemical; settings: for Micellar Cholesterol Content: cholesterol 1 mM
Procedure: The micellar solubility of cholesterol in vitro was measured by the method of Ikeda I., Tanabe Y. and Sugano M. , J. Nutr. Sci. Vitaminol. 35, 361, 1989. In detail, cholesterol (1 mM) or mixture of cholesterol (1 mM) and epicholesterol (0.5-8 mM) were sonicated for 2 minutes at 37°C in 15 mM NaPO₄ buffer, pH 7.4, containing 0.6 mM egg yolk lecithin, 1 mM oleic acid, 0.5 mM monolein, 6.6 mM Na taurocholate, and 132 mM NaCl. After incubation at 37°C overnight, the solutions were subjected to ultracentrifugation (100,000 g for 60 min at 37°C). Samples of the supernatant were assayed for the cholesterol content.

[3] = diet with 0.5% sodium cholate and 1.5% of the single sterol
[4] = diet with 0.5% sodium cholate and 1.5% of the single sterol, listed as cholesterol
[5] = diet with 0.5% sodium cholate and 1.5% of the single sterol, mean±spread
[6] = diet with 0.5% sodium cholate and 1.5% of the single sterol, listed as epicholesterol
[7] = diet with 1.5% Cholesterol and 1.5% Epicholesterol together, 0.5% sodium cholate
[8] = diet with 1.5% Cholesterol and 1.5% Epicholesterol together, 0.5% sodium cholate, listed as epicholesterol

CC(C)CCC[C@@H](C)[C@H]1CC[C@H]2[C@@H]3CC=C4C[C@@H](O)CC[C@]4(C)[C@H]3CC[C@]12C [Cholesterol]
CHOLESTEROL CONCENTRATION IN LIVER (Rats; [3]): **11.28±1.48 (n=7) mg/g fresh tissue | CHOLESTEROL CONCENTRATION IN LIVER (Rats; [4]): at least a fourfold increase | CHOLESTEROL CONCENTRATION IN PLASMA (Rats; [5]): **178±45 (n=7) mg/dl | CHOLESTEROL CONCENTRATION IN PLASMA (Rats; diet with 0.5% sodium cholate and 1.5% of the single sterol, mean±spread, listed as cholesterol): rose significantly | CHOLESTEROL CONCENTRATION IN LIVER (Mice; [3]): **18.70±2.60 (n=10) mg/g fresh tissue | CHOLESTEROL CONCENTRATION IN PLASMA (Mice; [3]): **152±19 (n=10) mg/dl | CHOLESTEROL CONCENTRATION IN LIVER (Mice; [4]): at least a fourfold increase | CHOLESTEROL CONCENTRATION IN PLASMA (Mice; [4]): rose significantly

CC(C)CCC[C@@H](C)[C@H]1CC[C@H]2[C@@H]3CC=C4C[C@H](O)CC[C@]4(C)[C@H]3CC[C@]12C [Epicholesterol, cholest-5-en-3α-ol]
CHOLESTEROL CONCENTRATION IN LIVER (Rats; [3]): °° 2.59±0.38 (n=3) mg/g fresh tissue | CHOLESTEROL CONCENTRATION IN LIVER (Rats; [6]): did not brought about any significant change | CHOLESTEROL CONCENTRATION IN PLASMA (Rats; [5]): °° 64±18 (n=3) mg/dl | CHOLESTEROL CONCENTRATION IN PLASMA (Rats; diet with 0.5% sodium cholate and 1.5% of the single sterol, mean±spread, listed as epicholesterol): did not brought about any significant change | CHOLESTEROL CONCENTRATION IN LIVER (Rats; [7]): ** 5.71±0.95 °° (n=3) □ mg/g fresh tissue | CHOLESTEROL CONCENTRATION IN PLASMA (Rats; [7]): **103±9 ° (n=3) □ mg/dl | CHOLESTEROL CONCENTRATION IN LIVER (Rats; [8]): significant decrease | CHOLESTEROL CONCENTRATION IN PLASMA (Rats; [8]): significant decrease | CHOLESTEROL CONCENTRATION IN LIVER (Mice; [3]): °° 2.58±0.16 (n=10) mg/g fresh tissue | CHOLESTEROL CONCENTRATION IN PLASMA (Mice; [3]): * 93±15 °°(n=10) mg/dl | CHOLESTEROL CONCENTRATION IN LIVER (Mice; [6]): did not brought about any significant change | CHOLESTEROL CONCENTRATION IN PLASMA (Mice; [6]): did not brought about any significant change | CHOLESTEROL CONCENTRATION IN LIVER (Mice; [7]): ** 9.54±1.49 °° (n=10) □□ mg/g fresh tissue | CHOLESTEROL CONCENTRATION IN PLASMA (Mice; [7]): **115±26 □(n=10) mg/dl | CHOLESTEROL CONCENTRATION IN LIVER (Mice; [8]): significant decrease | CHOLESTEROL CONCENTRATION IN PLASMA (Mice; [8]): significant decrease | absorption by the intestine ([1]; conclusion from plasma and liver sterol content of mice fed 1.5% epicholesterol diet): only minimally absorbed | Percent Distribution Epicholesterol (unesterified sterol content) ([1]; mice liver): 1.0±0.4% | Percent Distribution Epicholesterol (unesterified sterol content) ([1]; mice liver, listed as epicholesterol): only trace amount | Percent Distribution Epicholesterol (unesterified sterol content) ([1]; mice plasma): 2.6±1.5% | Percent Distribution Epicholesterol (unesterified sterol content) ([1]; mice plasma, listed as epicholesterol): only trace amount | Micellar Cholesterol Content ([2]; Cholesterol-to-Epicholesterol Ratio 0.125): 0.18 ± 0.02 mM | Micellar Cholesterol Content ([2]; Cholesterol-to-Epicholesterol Ratio 0.25): 0.22 ± 0.03 mM | Micellar Cholesterol Content ([2]; Cholesterol-to-Epicholesterol Ratio 0.5): 0.23 ± 0.06 mM | Micellar Cholesterol Content ([2]; Cholesterol-to-Epicholesterol Ratio 1): 0.42 ± 0.03 mM | Micellar Cholesterol Content ([2]; Cholesterol-to-Epicholesterol Ratio 2, control (cholesterol only) 1.00 ± 0.05): 0.71 ± 0.05 mM | decrease of cholesterol micellar solubility ([2]; cholesterol and epicholesterol in a 1 to 0.5 molar ratio): more than 30% | cholesterol micellar solubility ([2]; epicholesterol and cholesterol mixed together, all the concentrations tested of epicholesterol (0.5-8 mM)): significantly decreased
